Columns and labels:
Conditions in all cases: exposure time: 72 h
[1] = test system: E28 (patient-derived glioblastoma stem cells of classical subtype); experiment: surviving fraction (nuclei count normalised to DMSO); higher = more cells surviving (less toxic)
[2] = test system: FT3469 (normal neural stem cell line); experiment: as above
[3] = test system: E34 (patient-derived glioblastoma stem cells of proneural subtype); experiment: as above
[4] = test system: E21 (patient-derived glioblastoma stem cells of mesenchymal subtype); experiment: as above
[5] = test system: E57 (patient-derived glioblastoma stem cells of mesenchymal subtype); experiment: as above
[6] = test system: E31 (patient-derived glioblastoma stem cells of proneural subtype); experiment: as above
[7] = test system: E13 (patient-derived glioblastoma stem cells of classical subtype); experiment: as above
[8] = test system: E28; experiment: phenotypic distance (Euclidean, principal components) from DMSO controls (arbitrary units); higher = stronger morphological change
[9] = test system: FT3469; experiment: as above
[10] = test system: E34; experiment: as above
[11] = test system: E21; experiment: as above
[12] = test system: E57; experiment: as above
[13] = test system: E31; experiment: as above
[14] = test system: E13; experiment: as above
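Throughout, for phenotypic distance (Euclidean, principal components) from DMSO controls: cell Painting imaging in 384-well plates, CellProfiler features reduced to at least 20 principal components, Euclidean distance versus same-plate DMSO vehicle wells (0.1% v/v), median over six images per well.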
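Throughout, for surviving fraction (nuclei count normalised to DMSO): nuclei counted by high-content imaging of Hoechst-stained cells in laminin-coated 384-well plates, relative to 0.1% DMSO vehicle wells, with staurosporine as cell-death control.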

COc1cc([C@@H]2c3cc4c(cc3[C@@H](O[C@@H]3O[C@@H]5CO[C@@H](c6cccs6)O[C@H]5[C@H](O)[C@H]3O)[C@H]3COC(=O)[C@H]23)OCO4)cc(OC)c1O [Teniposide]
Conditions	phenotypic distance	surviving fraction
[1], 4.1 nM	–	0.491
[1], 12.3 nM	–	0.379
[1], 37 nM	–	0.428
[1], 111.1 nM	–	0.351
[1], 333.3 nM	–	0.32
[1], 1000 nM	–	0.269
[1], 3000 nM	–	0.314
[2], 4.1 nM	–	0.636
[2], 12.3 nM	–	0.643
[2], 37 nM	–	0.644
[2], 111.1 nM	–	0.62
[2], 333.3 nM	–	0.595
[2], 1000 nM	–	0.629
[2], 3000 nM	–	0.544
[3], 4.1 nM	–	0.758
[3], 12.3 nM	–	0.677
[3], 37 nM	–	0.577
[3], 111.1 nM	–	0.57
[3], 333.3 nM	–	0.501
[3], 1000 nM	–	0.447
[3], 3000 nM	–	0.373
[4], 4.1 nM	–	0.902
[4], 12.3 nM	–	0.682
[4], 37 nM	–	0.589
[4], 111.1 nM	–	0.552
[4], 333.3 nM	–	0.376
[4], 1000 nM	–	0.145
[4], 3000 nM	–	0.177
[5], 4.1 nM	–	0.727
[5], 12.3 nM	–	0.418
[5], 37 nM	–	0.323
[5], 111.1 nM	–	0.212
[5], 333.3 nM	–	0.167
[5], 1000 nM	–	0.178
[5], 3000 nM	–	0.148
[6], 4.1 nM	–	0.376
[6], 12.3 nM	–	0.25
[6], 37 nM	–	0.241
[6], 111.1 nM	–	0.201
[6], 333.3 nM	–	0.2
[6], 1000 nM	–	0.243
[6], 3000 nM	–	0.191
[7], 4.1 nM	–	0.713
[7], 12.3 nM	–	0.528
[7], 37 nM	–	0.45
[7], 111.1 nM	–	0.412
[7], 333.3 nM	–	0.351
[7], 1000 nM	–	0.305
[7], 3000 nM	–	0.174
[8], 4.1 nM	3.11	–
[8], 12.3 nM	3.7	–
[8], 37 nM	3.52	–
[8], 111.1 nM	3.17	–
[8], 333.3 nM	3.7	–
[8], 1000 nM	3.58	–
[8], 3000 nM	3.53	–
[9], 4.1 nM	1.68	–
[9], 12.3 nM	2.44	–
[9], 37 nM	2.6	–
[9], 111.1 nM	2.26	–
[9], 333.3 nM	1.97	–
[9], 1000 nM	1.78	–
[9], 3000 nM	2.12	–
[10], 4.1 nM	1.81	–
[10], 12.3 nM	2.04	–
[10], 37 nM	3.24	–
[10], 111.1 nM	3.96	–
[10], 333.3 nM	4.04	–
[10], 1000 nM	2.46	–
[10], 3000 nM	2.97	–
[11], 4.1 nM	0.843	–
[11], 12.3 nM	2.77	–
[11], 37 nM	3.95	–
[11], 111.1 nM	5.39	–
[11], 333.3 nM	5.06	–
[11], 1000 nM	6.2	–
[11], 3000 nM	6.57	–
[12], 4.1 nM	1.82	–
[12], 12.3 nM	4.96	–
[12], 37 nM	6.24	–
[12], 111.1 nM	8.39	–
[12], 333.3 nM	8.07	–
[12], 1000 nM	6.94	–
[12], 3000 nM	6.61	–
[13], 4.1 nM	4.09	–
[13], 12.3 nM	2.97	–
[13], 37 nM	3.3	–
[13], 111.1 nM	3.9	–
[13], 333.3 nM	2.97	–
[13], 1000 nM	2.67	–
[13], 3000 nM	3.37	–
[14], 4.1 nM	1.43	–
[14], 12.3 nM	3.27	–
[14], 37 nM	4.96	–
[14], 111.1 nM	5.68	–
[14], 333.3 nM	5.77	–
[14], 1000 nM	5.12	–
[14], 3000 nM	6.24	–

NC(=O)c1cccc2cn(-c3ccc([C@@H]4CCCNC4)cc3)nc12 [Niraparib]
Conditions	phenotypic distance	surviving fraction
[1], 4.1 nM	–	0.905
[1], 12.3 nM	–	0.975
[1], 37 nM	–	0.875
[1], 111.1 nM	–	0.868
[1], 333.3 nM	–	0.922
[1], 1000 nM	–	0.84
[1], 3000 nM	–	0.603
[2], 4.1 nM	–	0.84
[2], 12.3 nM	–	0.901
[2], 37 nM	–	0.853
[2], 111.1 nM	–	0.918
[2], 333.3 nM	–	0.931
[2], 1000 nM	–	0.916
[2], 3000 nM	–	0.743
[3], 4.1 nM	–	0.963
[3], 12.3 nM	–	0.904
[3], 37 nM	–	0.902
[3], 111.1 nM	–	0.971
[3], 333.3 nM	–	0.861
[3], 1000 nM	–	0.924
[3], 3000 nM	–	0.737
[4], 4.1 nM	–	0.89
[4], 12.3 nM	–	0.869
[4], 37 nM	–	0.882
[4], 111.1 nM	–	0.923
[4], 333.3 nM	–	0.916
[4], 1000 nM	–	0.927
[4], 3000 nM	–	0.942
[5], 4.1 nM	–	0.996
[5], 12.3 nM	–	0.917
[5], 37 nM	–	0.93
[5], 111.1 nM	–	0.833
[5], 333.3 nM	–	0.951
[5], 1000 nM	–	0.921
[5], 3000 nM	–	0.826
[6], 4.1 nM	–	1.04
[6], 12.3 nM	–	0.782
[6], 37 nM	–	1
[6], 111.1 nM	–	0.896
[6], 333.3 nM	–	0.939
[6], 1000 nM	–	0.886
[6], 3000 nM	–	0.64
[7], 4.1 nM	–	0.923
[7], 12.3 nM	–	0.914
[7], 37 nM	–	0.942
[7], 111.1 nM	–	0.857
[7], 333.3 nM	–	0.967
[7], 1000 nM	–	0.966
[7], 3000 nM	–	0.811
[8], 4.1 nM	0.932	–
[8], 12.3 nM	0.689	–
[8], 37 nM	1.02	–
[8], 111.1 nM	0.861	–
[8], 333.3 nM	0.791	–
[8], 1000 nM	1.23	–
[8], 3000 nM	2.78	–
[9], 4.1 nM	1.72	–
[9], 12.3 nM	0.905	–
[9], 37 nM	1.21	–
[9], 111.1 nM	0.978	–
[9], 333.3 nM	0.746	–
[9], 1000 nM	1.12	–
[9], 3000 nM	2.12	–
[10], 4.1 nM	3.06	–
[10], 12.3 nM	0.78	–
[10], 37 nM	0.587	–
[10], 111.1 nM	0.691	–
[10], 333.3 nM	0.654	–
[10], 1000 nM	0.893	–
[10], 3000 nM	1.77	–
[11], 4.1 nM	1	–
[11], 12.3 nM	1.03	–
[11], 37 nM	0.998	–
[11], 111.1 nM	0.66	–
[11], 333.3 nM	0.751	–
[11], 1000 nM	3.25	–
[11], 3000 nM	0.988	–
[12], 4.1 nM	0.553	–
[12], 12.3 nM	0.936	–
[12], 37 nM	0.684	–
[12], 111.1 nM	0.604	–
[12], 333.3 nM	0.582	–
[12], 1000 nM	0.667	–
[12], 3000 nM	1.51	–
[13], 4.1 nM	0.907	–
[13], 12.3 nM	1.29	–
[13], 37 nM	1.19	–
[13], 111.1 nM	0.995	–
[13], 333.3 nM	0.875	–
[13], 1000 nM	0.834	–
[13], 3000 nM	2.29	–
[14], 4.1 nM	6.4	–
[14], 12.3 nM	0.843	–
[14], 37 nM	0.647	–
[14], 111.1 nM	1.65	–
[14], 333.3 nM	1.62	–
[14], 1000 nM	0.782	–
[14], 3000 nM	1.33	–

COc1ccc(C(=O)CC(=O)c2ccc(C(C)(C)C)cc2)cc1 [Avobenzone]
Conditions	phenotypic distance	surviving fraction
[1], 4.1 nM	–	1.14
[1], 12.3 nM	–	1.14
[1], 37 nM	–	1.14
[1], 111.1 nM	–	0.988
[1], 333.3 nM	–	1.06
[1], 1000 nM	–	1.12
[1], 3000 nM	–	0.739
[2], 4.1 nM	–	1.08
[2], 12.3 nM	–	1.38
[2], 37 nM	–	1
[2], 111.1 nM	–	1.2
[2], 333.3 nM	–	0.863
[2], 1000 nM	–	1.25
[2], 3000 nM	–	0.973
[3], 4.1 nM	–	1.08
[3], 12.3 nM	–	0.923
[3], 37 nM	–	0.995
[3], 111.1 nM	–	1.06
[3], 333.3 nM	–	1.04
[3], 1000 nM	–	1.03
[3], 3000 nM	–	0.818
[4], 4.1 nM	–	1.1
[4], 12.3 nM	–	1.17
[4], 37 nM	–	1.05
[4], 111.1 nM	–	1.13
[4], 333.3 nM	–	1.13
[4], 1000 nM	–	1.07
[4], 3000 nM	–	0.82
[5], 4.1 nM	–	1.04
[5], 12.3 nM	–	1.07
[5], 37 nM	–	1.02
[5], 111.1 nM	–	0.975
[5], 333.3 nM	–	1.12
[5], 1000 nM	–	1.03
[5], 3000 nM	–	0.96
[6], 4.1 nM	–	0.989
[6], 12.3 nM	–	1.02
[6], 37 nM	–	1.02
[6], 111.1 nM	–	0.921
[6], 333.3 nM	–	0.973
[6], 1000 nM	–	1.06
[6], 3000 nM	–	0.941
[7], 4.1 nM	–	0.902
[7], 12.3 nM	–	1.02
[7], 37 nM	–	1.08
[7], 111.1 nM	–	0.948
[7], 333.3 nM	–	1.11
[7], 1000 nM	–	1.07
[7], 3000 nM	–	0.8
[8], 4.1 nM	1.01	–
[8], 12.3 nM	0.675	–
[8], 37 nM	0.613	–
[8], 111.1 nM	0.631	–
[8], 333.3 nM	0.646	–
[8], 1000 nM	0.601	–
[8], 3000 nM	0.879	–
[9], 4.1 nM	0.579	–
[9], 12.3 nM	0.768	–
[9], 37 nM	0.688	–
[9], 111.1 nM	0.824	–
[9], 333.3 nM	0.788	–
[9], 1000 nM	2.5	–
[9], 3000 nM	0.402	–
[10], 4.1 nM	0.805	–
[10], 12.3 nM	0.881	–
[10], 37 nM	0.524	–
[10], 111.1 nM	0.804	–
[10], 333.3 nM	0.741	–
[10], 1000 nM	0.759	–
[10], 3000 nM	1.45	–
[11], 4.1 nM	0.845	–
[11], 12.3 nM	0.782	–
[11], 37 nM	0.67	–
[11], 111.1 nM	0.818	–
[11], 333.3 nM	0.929	–
[11], 1000 nM	0.701	–
[11], 3000 nM	1.59	–
[12], 4.1 nM	0.899	–
[12], 12.3 nM	1.11	–
[12], 37 nM	0.644	–
[12], 111.1 nM	0.447	–
[12], 333.3 nM	1.15	–
[12], 1000 nM	0.55	–
[12], 3000 nM	1.16	–
[13], 4.1 nM	0.665	–
[13], 12.3 nM	0.919	–
[13], 37 nM	0.653	–
[13], 111.1 nM	0.43	–
[13], 333.3 nM	0.486	–
[13], 1000 nM	0.737	–
[13], 3000 nM	0.899	–
[14], 4.1 nM	1.11	–
[14], 12.3 nM	0.579	–
[14], 37 nM	0.386	–
[14], 111.1 nM	0.499	–
[14], 333.3 nM	0.627	–
[14], 1000 nM	0.606	–
[14], 3000 nM	0.743	–
